This note sets out measurements from PubChem BioAssay AID1996.

Converted amounts (≈) assume the structure as drawn.

For the series the following is noted: buffer; pH 7.4; 200.0 µM.
On to `Cc1csc(NC(=O)Cn2nc(C)c([N+](=O)[O-])c2C)n1`, for which the kinetic solubility is greater than 44.3 µg/mL.

Take `CCN(CC(=O)Nc1ccccc1OC)C(=O)CC1CC2CCC1C2` (configuration not stated): the solubility (kinetic) is greater than 51.7 µg/mL.

In the case of `N/C(CS(=O)(=O)c1ccc(F)cc1)=N\O`, the solubility (kinetic) is greater than 34.8 µg/mL.

`CC(C)C1Cc2nc(Cl)c(C#N)cc2CO1` (configuration not stated): the kinetic solubility was found to be 24.8 µg/mL (≈ 105 µM).

`COC(=O)C1CCN(C(=O)COC(=O)/C=C/c2ccc(O)c(OC)c2)CC1` displayed a solubility (kinetic) greater than 56.6 µg/mL.

Turning to `N#Cc1ccc(C(=O)NN2C(=O)NC3(CCCCC3)C2=O)cc1`, the kinetic solubility was greater than 46.8 µg/mL.

With `COC(=O)C[n+]1cccc2ccccc21.[Cl-]`, the solubility (kinetic) was greater than 35.7 µg/mL.

As for `COc1ccc(Cl)cc1N=Cc1c(O)c2ccccc2oc1=O`, the solubility (kinetic) is less than 0.7 µg/mL.

Compound `O=C(COC(=O)/C=C/c1ccco1)NCc1ccc(Cl)cc1Cl` showed a solubility (kinetic) of 7.6 µg/mL (≈ 21.5 µM).

For the compound `CCOC(=O)c1cc(NC(=O)c2cccnc2)ccn1`, the solubility (kinetic) came to 37.1 µg/mL (≈ 137 µM).

Consider `CCn1ccc(-c2ccccc2)c(C#N)c1=O`, for which the kinetic solubility was greater than 33.6 µg/mL.

For the compound `Cc1c(Cl)cccc1NC(=S)NCCc1ccccn1`, the solubility (kinetic) was greater than 45.9 µg/mL.

On to `Cc1ccc2cccc(NS(=O)(=O)c3ccccc3)c2n1`, for which the solubility (kinetic) is less than 0.3 µg/mL.

For `Cc1ccc2cc(CCNC(=O)CCCc3ccccc3)c(=O)[nH]c2c1`, the kinetic solubility came out at 2.2 µg/mL (≈ 6.31 µM).

`CCSc1nc2sc3c(c2c(=O)n1CC)CCC3`: the kinetic solubility was determined as 2.2 µg/mL (≈ 7.85 µM).

Compound `CC(=O)Nc1ccc(S(=O)(=O)Nc2ccc(C)c([N+](=O)[O-])c2)cc1` had a kinetic solubility greater than 52.4 µg/mL.

With `Cc1ccccc1C(=O)OCC(=O)Nc1cccc(S(=O)(=O)NC2=NCCC2)c1`, the solubility (kinetic) is greater than 62.3 µg/mL.

Compound `CCCCCCC(=O)N(O)C1CC(=O)N(c2ccc(F)cc2)C1=O` (configuration not stated) showed a kinetic solubility greater than 50.5 µg/mL.

`Cc1ccsc1C(=O)NNC(=S)NC1CCCCC1` returned a kinetic solubility greater than 44.6 µg/mL.

Regarding `CC(C)(C)C(=O)Nc1ccc(-c2cn3cccnc3n2)cc1`, the solubility (kinetic) came out at 42.6 µg/mL (≈ 145 µM).

`NC(=O)NC(=O)COC(=O)c1ccc(OC(F)F)cc1` gave a kinetic solubility of 9.9 µg/mL (≈ 34.4 µM).

Consider `Oc1ccc2ccccc2c1CN1CCN(C/C=C/c2ccccc2)CC1`, for which the kinetic solubility was determined as 10.1 µg/mL (≈ 28.2 µM).

On to `COc1ccc(OC)c(NC(=O)CCNC(=O)c2ccco2)c1`, for which the solubility (kinetic) worked out at 44.7 µg/mL (≈ 140 µM).

Compound `CNC(=O)N1CCC(C(=O)c2c(C)c(C)c(C)c(C)c2C)CC1` displayed a solubility (kinetic) of 36.5 µg/mL (≈ 115 µM).

In turn, `O=C(NC(=S)NC1CCSC1=O)c1ccc([N+](=O)[O-])cc1` (configuration not stated) displayed a kinetic solubility of 40.6 µg/mL (≈ 125 µM).

With `CCOC(=O)c1ccc(NC(=O)NCCc2cnc[nH]2)cc1`, the kinetic solubility was greater than 45.3 µg/mL.

`COc1ccc(C(=O)O/N=C(/c2cccs2)C(C)(C)C)cc1`: the kinetic solubility is 2.4 µg/mL (≈ 7.56 µM).

Compound `Cc1csc2c(=O)sc(NC(=O)c3ccc(F)cc3Cl)nc12` yielded a kinetic solubility of less than 0.4 µg/mL.

For the compound `Cc1ccccc1CC(=O)NCCN1CCCCC1`, the kinetic solubility is greater than 39.1 µg/mL.

Compound `O=C(COC(=O)c1cnccn1)Nc1cc(S(=O)(=O)N2CCOCC2)ccc1Cl` yielded a kinetic solubility greater than 66.1 µg/mL.

As to `COc1ccc(NCC(=O)n2c(C)c(C)c3ccccc32)cc1OC`, the solubility (kinetic) came out at 4.9 µg/mL (≈ 14.5 µM).

Consider `O=C(OCC(=O)N1CCCC1=O)c1nc(Cl)c(Cl)c(Cl)c1Cl`, for which the solubility (kinetic) was determined as 32.9 µg/mL (≈ 85.2 µM).

In turn, `CCC1CCC(N2CCN(c3ccc([N+](=O)[O-])cc3)CC2)CC1` (configuration not stated) had a solubility (kinetic) of 8.9 µg/mL (≈ 28 µM).

`CCc1cccc(NS(=O)(=O)c2csc(C(N)=O)c2)c1`: the kinetic solubility is greater than 46.6 µg/mL.

Compound `O=C(NC1CC1)[C@@H]1CSC2c3ccccc3C(=O)N21` (some centres not stated) showed a kinetic solubility greater than 41.2 µg/mL.

Compound `NC(=O)c1ccc(N2CCC(C(N)=O)CC2)c([N+](=O)[O-])c1` came in with a kinetic solubility of 38.4 µg/mL (≈ 131 µM).

`COc1ccc(OC)c(NC(=O)CS(=O)(=O)Cc2ccccc2)c1` showed a kinetic solubility of 3.1 µg/mL (≈ 8.87 µM).

`Cc1cc(Br)ccc1NC(=O)CNC(=O)CSc1nccn1C` yielded a solubility (kinetic) greater than 59.6 µg/mL.

`c1ccc(-c2cccs2)nc1`: the solubility (kinetic) was 1.9 µg/mL (≈ 11.8 µM).

`NS(=O)(=O)c1ccc(CNC(=O)Cc2ccsc2)cc1` displayed a kinetic solubility greater than 46.6 µg/mL.

Regarding `Cc1ccc(Cl)cc1N1CCN(C(=S)NCc2ccco2)CC1`, the solubility (kinetic) is 1 µg/mL (≈ 2.86 µM).

Compound `COc1ccccc1CNC(=O)C(C)Oc1ccccc1` (configuration not stated) had a solubility (kinetic) greater than 42.8 µg/mL.

In turn, `CS(=O)(=O)c1ccc(C(=O)N2CCc3ccccc3C2)cc1` displayed a kinetic solubility greater than 47.3 µg/mL.

`COc1ccc2nc(NC(=O)c3ccccc3C(=O)O)sc2c1` displayed a solubility (kinetic) greater than 49.3 µg/mL.

`CC(=O)Nc1ccc(C(=O)OCC(=O)N(c2ccccc2)C2CCCCC2)cc1`: the kinetic solubility was found to be 3.8 µg/mL (≈ 9.63 µM).

The compound `COc1ccc(CN2CCSCC2)c(C)c1C` registered a solubility (kinetic) of 5.7 µg/mL (≈ 22.7 µM).

The compound `O=C(Nc1ccc(F)cc1)C1CC2CCC1C2` (configuration not stated) registered a solubility (kinetic) of 25.3 µg/mL (≈ 108 µM).

As for `Cc1noc(C)c1C(=O)OCC(=O)C12CC3CC(CC(C3)C1)C2`, the solubility (kinetic) was less than 0.7 µg/mL.

Consider `CCCc1cc(=O)[nH]c(SCC(=O)Nc2cc(S(=O)(=O)N3CCOCC3)ccc2Cl)n1`, for which the solubility (kinetic) worked out at 63.8 µg/mL (≈ 131 µM).

Compound `COc1ccc(CCNC(=O)COC(=O)c2cccn2C)cc1` showed a solubility (kinetic) greater than 47.5 µg/mL.

`O=S(=O)(Nc1ccncc1)c1cc(Cl)ccc1Cl`: the kinetic solubility was 21.2 µg/mL (≈ 69.9 µM).

As to `Cc1ccc(C)c(N(CC(=O)N2CCc3ccccc3C2)S(C)(=O)=O)c1`, the kinetic solubility was 52.8 µg/mL (≈ 142 µM).
